Assay results reported in patent publication US4861778A, “2,3-dihydrophthalazine-1,4-diones” (priority 1986, dated 1989).
Where two headings read alike, the source gives them in different places.

Experiments:
[1] = system: serum cholesterol and serum triglyceride; experiment: Hypolipidemic activity of 2,3-dihydrophthalazine-1,4-diones in normal male mice (Example 11, Table II); assay type: in vivo, CF1 male mice; conditions: Mus musculus, ip, CF1 male mice, 20 mg/kg/day intraperitoneally
Description: Hypolipidemic Activity of 2,3-Dihydrophthalazine-1,4-Diones in Normal Male Mice
Each of the prepared compounds was administered intraperitoneally, in a dosage of 20 milligrams per kilogram of body weight per day, to a group of six CF1 male mice, each weighing approximately 25 grams, for 16 days. On Days 9 and 16 blood was obtained from each of the tested mice by tail vein bleeding. The blood serum so obtained was separated by centrifugation for three minutes. […] Serum triglyceride levels were obtained on Day 16 by use of the Bio-Dynamics/bm Triglyceride Kit.
In addition to the above-described treated mice, an untreated control group of six mice were similarly tested on Days 9 and 16 to determine their serum cholesterol and serum triglyceride blood levels.

[2] = system: serum cholesterol and serum triglyceride; experiment: Hypolipidemic effect of Compound No. 1 in normal CF1 male mice, dose response (Example 12, Table III); assay type: in vivo
Description: The hypolipidemic effects of a preferred compound within the scope of the present invention, 2,3-dihydrophthalazine-1,4-dione (Compound No. 1), was tested in accordance with the procedure set forth in Example 11. However, in addition to testing normal CF1 male mice at 20 mg/kg/d ip, sets of six of these mice were treated with dosages of 10, 40 and 60 mg/kg/d. A set of six mice were again treated with a 1 percent aqueous solution of CMC, the carrier for the active agent, as a control.
(§1) In Table III the results are reported as percent of serum cholesterol and serum triglyceride based on the concentration of these materials found in the control, the rats treated with the 1 percent aqueous solution of CMC.

[3] = system: serum cholesterol and serum triglyceride; experiment: Hypolipidemic effect of Compound No. 1 in normal Sprague-Dawley male rats (Example 12, Table III); assay type: in vivo; conditions: 10 mg/kg/day orally
Description: In addition, rats were treated with Compound No. 1. The rats used in the test were normal Sprague-Dawley male rats, each weighting approximately 350 grams. The rats, tested in groups of six, were orally administered 10 mg/kg/d of Compound 1 in an aqueous solution of 1 percent CMC. The treatment of 10 milligrams per kilogram of body weight per day continued for 14 days. On Days 7 and 14 blood was obtained from each of the rats by tail vein bleeding. The blood obtained was separated centrifugation for three minutes. Serum cholesterol and serum triglyceride blood levels were determined in accordance with the procedure of Example 1.
as §1

[4] = system: plasma lipoprotein fractions; experiment: Determination of plasma lipoprotein fractions in rats (Example 13, Table IV); assay type: in vivo, Sprague-Dawley male rats; conditions: 10 mg/kg/d orally
From the text: Determination of Plasma Lipoprotein Fractions in Rats
Sets of six normal Sprague-Dawley male rats, each weighing approximately 350 grams, were orally treated with 10 milligrams per kilogram of body weight per day of 2,3-dihydrophthalazine-1,4-dione (Comp. No. 1) by intubation needle. In addition, a set of six Sprague-Dawley male rats of approximately the same weight were similarly treated except that the administered drug was the inert carrier, the 1 percent aqueous solution of CMC.
Blood was collected from all the rats participating in the test from the abdominal vein and lipoprotein fractions were obtained by the method of Hatch and Lees (Adv. Lipid Res., Vol. 6, 1 [1968]) and Havel et al. (J. Clin. Invest., Vol. 34, 1345 [1955]). Each of the fractions were analyzed for cholesterol in accordance with the Ness et al. test, for triglyceride level (Bio-Dynamic/bmc Triglyceride Kit), neutral lipids, in accordance with the test of Bragdon (J. Biol. Chem., Vol. 190, 513 [1951]), phospholipids, in accordance with the Stewart and Hendry procedure (Biochem. J., Vol. 29, 1683 [1935]) and protein levels, in accordance with the procedure of Lowry et al. (J. Biol. Chem., Vol. 193, 265 [1951]).

[5] = system: serum cholesterol and serum triglycerides; experiment: Effect of Compound 1 on hyperlipidemic mice (Example 14); assay type: in vivo, CF1 male mice; conditions: diet-induced hyperlipidemic CF1 mice, 20 mg/kg daily, 12 days
Description: Effect of Compound 1 on Hyperlipidemic Mice
A group of CF1 male mice were fed a diet resulting in induced hyperlipidemia.
These hyperlipidemic mice were treated for 12 days with Compound 1 (2,3-dihydrophthalazine-1,4-dione) at a daily dosage of 20 mg/kg. At the conclusion of this treatment regime the average serum cholesterol level of the hyperlipidemic mice was lowered to 221 mg percent, a 41 percent reduction.

`O=c1[nH][nH]c(=O)c2ccccc12` [Compound 1, 2,3-Dihydrophthalazine-1,4-Dione] was tested, and the response vs control in vivo at 20 mg/kg/day ([1]; 216 h, Day 9, read-out: Serum Cholesterol Day 9, percent control ± standard deviation) was 53 ± 4%, the response vs control in vivo at 20 mg/kg/day ([1]; 384 h, Day 16, read-out: Serum Cholesterol Day 16, percent control ± standard deviation) was 49 ± 5% and the response vs control in vivo at 20 mg/kg/day ([1]; 384 h, Day 16, read-out: Serum Triglyceride Day 16, percent control ± standard deviation) was 57 ± 4%. The “Cholesterol Day 9, % control ± standard deviation” value ([2]; 10 mg/kg/day ip) was 88 ± 5 % CONTROL, the “Cholesterol Day 16, % control ± standard deviation” value ([2]; 10 mg/kg/day ip) was 76 ± 7 % CONTROL and the “Triglyceride Day 16, % control ± standard deviation” value ([2]; 10 mg/kg/day ip) was 67 ± 5 % CONTROL. The “Cholesterol Day 9, % control ± standard deviation” value ([2]; 20 mg/kg/day ip) was 53 ± 4 % CONTROL, the “Cholesterol Day 16, % control ± standard deviation” value ([2]; 20 mg/kg/day ip) was 49 ± 8 % CONTROL and the “Triglyceride Day 16, % control ± standard deviation” value ([2]; 20 mg/kg/day ip) was 57 ± 4 % CONTROL. For the same compound, the “Cholesterol Day 9, % control ± standard deviation” value ([2]; 40 mg/kg/day ip) was 71 ± 7 % CONTROL, the “Cholesterol Day 16, % control ± standard deviation” value ([2]; 40 mg/kg/day ip) was 60 ± 6 % CONTROL and the “Triglyceride Day 16, % control ± standard deviation” value ([2]; 40 mg/kg/day ip) was 44 ± 3 % CONTROL. For the same compound, the “Cholesterol Day 9, % control ± standard deviation” value ([2]; 60 mg/kg/day ip) was 76 ± 8 % CONTROL, the “Cholesterol Day 16, % control ± standard deviation” value ([2]; 60 mg/kg/day ip) was 55 ± 5 % CONTROL and the “Triglyceride Day 16, % control ± standard deviation” value ([2]; 60 mg/kg/day ip) was 49 ± 5 % CONTROL. For the same compound, the “Cholesterol Day 7, % control ± standard deviation” value ([3]; Day 7) was 75 ± 5 % CONTROL, the “Triglyceride Day 7, % control ± standard deviation” value ([3]; Day 7) was 66 ± 6 % CONTROL and the “Cholesterol Day 14, % control ± standard deviation” value ([3]; Day 14) was 68 ± 8 % CONTROL. For the same compound, the “Triglyceride Day 14, % control ± standard deviation” value ([3]; Day 14) was 64 ± 5 % CONTROL, the “HDL cholesterol, percent control ± standard deviation” value ([4]; HDL, column 1) was 107 ± 3 PERCENT CONTROL and the “HDL triglyceride, percent control ± standard deviation” value ([4]; HDL, column 2) was 42 ± 4 PERCENT CONTROL. The “HDL neutral lipids, percent control ± standard deviation” value ([4]; HDL, column 3) was 86 ± 3 PERCENT CONTROL, the “HDL phospholipids, percent control ± standard deviation” value ([4]; HDL, column 4) was 42 ± 6 PERCENT CONTROL and the “HDL protein, percent control ± standard deviation” value ([4]; HDL, column 5) was 93 ± 7 PERCENT CONTROL. For the same compound, the “LDL cholesterol, percent control ± standard deviation” value ([4]; LDL, column 1) was 35 ± 6 PERCENT CONTROL, the “LDL triglyceride, percent control ± standard deviation” value ([4]; LDL, column 2) was 94 ± 7 PERCENT CONTROL and the “LDL neutral lipids, percent control ± standard deviation” value ([4]; LDL, column 3) was 88 ± 6 PERCENT CONTROL. For the same compound, the “LDL phospholipids, percent control ± standard deviation” value ([4]; LDL, column 4) was 125 ± 7 PERCENT CONTROL, the “LDL protein, percent control ± standard deviation” value ([4]; LDL, column 5) was 92 ± 8 PERCENT CONTROL and the “VLDL cholesterol, percent control ± standard deviation” value ([4]; VLDL, column 1) was 30 ± 5 PERCENT CONTROL. For the same compound, the “VLDL triglyceride, percent control ± standard deviation” value ([4]; VLDL, column 2) was 134 ± 10 PERCENT CONTROL, the “VLDL neutral lipids, percent control ± standard deviation” value ([4]; VLDL, column 3) was 81 ± 3 PERCENT CONTROL and the “VLDL phospholipids, percent control ± standard deviation” value ([4]; VLDL, column 4) was 91 ± 6 PERCENT CONTROL. The “VLDL protein, percent control ± standard deviation” value ([4]; VLDL, column 5) was 103 ± 7 PERCENT CONTROL, the “Chylomicrons cholesterol, percent control ± standard deviation” value ([4]; chylomicrons, column 1) was 82 ± 6 PERCENT CONTROL and the “Chylomicrons triglyceride, percent control ± standard deviation” value ([4]; chylomicrons, column 2) was 85 ± 7 PERCENT CONTROL. For the same compound, the “Chylomicrons neutral lipids, percent control ± standard deviation” value ([4]; chylomicrons, column 3) was 84 ± 8 PERCENT CONTROL, the “Chylomicrons phospholipids, percent control ± standard deviation” value ([4]; chylomicrons, column 4) was 92 ± 7 PERCENT CONTROL and the “Chylomicrons protein, percent control ± standard deviation” value ([4]; chylomicrons, column 5) was 102 ± 6 PERCENT CONTROL. The “reduction of serum cholesterol level” value [5] was 41%, the “reduction of serum triglycerides level” value [5] was 56% and the “average serum triglycerides level after treatment” value ([5]; initial 367 mg/dl) was 161 mg/dL. The “average serum cholesterol level after treatment” value ([5]; initial 375 mg percent) was 221 mg percent.
